{
  "source": "ChEMBL document CHEMBL5465560",
  "about": "“Selectivity Literature for EUbOPEN Chemogenomic Library” (2024)",
  "key": {"[1]": {"biological_target": "Proto-oncogene tyrosine-protein kinase Src (Homo sapiens, UniProt P12931)", "assay": "Selectivity interaction (Millipore kinase profiler) EUB0000124b SRC", "details": "at 10 µM"}, "[2]": {"biological_target": "Angiopoietin-1 receptor (Homo sapiens) (UniProt Q02763)", "sequence (Q02763 whole entry)": "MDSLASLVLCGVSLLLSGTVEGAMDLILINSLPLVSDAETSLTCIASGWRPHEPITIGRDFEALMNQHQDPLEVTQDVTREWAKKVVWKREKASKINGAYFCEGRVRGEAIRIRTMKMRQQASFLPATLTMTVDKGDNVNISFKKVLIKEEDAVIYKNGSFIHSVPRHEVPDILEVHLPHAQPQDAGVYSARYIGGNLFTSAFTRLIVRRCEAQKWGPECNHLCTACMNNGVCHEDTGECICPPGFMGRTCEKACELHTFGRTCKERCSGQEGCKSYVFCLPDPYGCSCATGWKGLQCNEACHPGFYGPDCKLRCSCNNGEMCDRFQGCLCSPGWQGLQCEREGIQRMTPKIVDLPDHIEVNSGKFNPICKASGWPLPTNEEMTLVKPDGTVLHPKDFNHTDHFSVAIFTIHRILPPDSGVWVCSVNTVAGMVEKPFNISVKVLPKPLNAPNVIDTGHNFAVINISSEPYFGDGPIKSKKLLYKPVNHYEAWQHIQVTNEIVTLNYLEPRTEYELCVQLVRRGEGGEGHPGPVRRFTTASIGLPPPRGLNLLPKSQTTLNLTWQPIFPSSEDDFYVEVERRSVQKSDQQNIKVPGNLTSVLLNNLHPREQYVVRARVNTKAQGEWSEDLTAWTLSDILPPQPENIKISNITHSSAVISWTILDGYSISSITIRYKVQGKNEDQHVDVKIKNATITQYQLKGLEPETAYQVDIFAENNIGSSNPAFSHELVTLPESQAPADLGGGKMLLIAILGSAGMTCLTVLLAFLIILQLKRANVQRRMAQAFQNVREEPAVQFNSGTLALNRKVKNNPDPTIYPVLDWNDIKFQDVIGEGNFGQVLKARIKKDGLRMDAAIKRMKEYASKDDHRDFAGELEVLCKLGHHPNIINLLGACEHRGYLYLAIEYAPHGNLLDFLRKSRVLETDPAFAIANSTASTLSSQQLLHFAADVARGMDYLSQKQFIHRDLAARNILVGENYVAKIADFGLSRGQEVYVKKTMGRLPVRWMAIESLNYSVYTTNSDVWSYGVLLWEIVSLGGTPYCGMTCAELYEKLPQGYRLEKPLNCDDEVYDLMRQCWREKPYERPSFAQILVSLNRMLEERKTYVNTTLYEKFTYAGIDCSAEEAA", "assay": "Selectivity interaction (KinaseProfiler screening (Millipore)) EUB0000601a TEK", "details": "at 3 µM"}, "[3]": {"biological_target": "Leucine-rich repeat serine/threonine-protein kinase 2 (Homo sapiens, UniProt Q5S007)", "sequence (Q5S007 whole entry)": "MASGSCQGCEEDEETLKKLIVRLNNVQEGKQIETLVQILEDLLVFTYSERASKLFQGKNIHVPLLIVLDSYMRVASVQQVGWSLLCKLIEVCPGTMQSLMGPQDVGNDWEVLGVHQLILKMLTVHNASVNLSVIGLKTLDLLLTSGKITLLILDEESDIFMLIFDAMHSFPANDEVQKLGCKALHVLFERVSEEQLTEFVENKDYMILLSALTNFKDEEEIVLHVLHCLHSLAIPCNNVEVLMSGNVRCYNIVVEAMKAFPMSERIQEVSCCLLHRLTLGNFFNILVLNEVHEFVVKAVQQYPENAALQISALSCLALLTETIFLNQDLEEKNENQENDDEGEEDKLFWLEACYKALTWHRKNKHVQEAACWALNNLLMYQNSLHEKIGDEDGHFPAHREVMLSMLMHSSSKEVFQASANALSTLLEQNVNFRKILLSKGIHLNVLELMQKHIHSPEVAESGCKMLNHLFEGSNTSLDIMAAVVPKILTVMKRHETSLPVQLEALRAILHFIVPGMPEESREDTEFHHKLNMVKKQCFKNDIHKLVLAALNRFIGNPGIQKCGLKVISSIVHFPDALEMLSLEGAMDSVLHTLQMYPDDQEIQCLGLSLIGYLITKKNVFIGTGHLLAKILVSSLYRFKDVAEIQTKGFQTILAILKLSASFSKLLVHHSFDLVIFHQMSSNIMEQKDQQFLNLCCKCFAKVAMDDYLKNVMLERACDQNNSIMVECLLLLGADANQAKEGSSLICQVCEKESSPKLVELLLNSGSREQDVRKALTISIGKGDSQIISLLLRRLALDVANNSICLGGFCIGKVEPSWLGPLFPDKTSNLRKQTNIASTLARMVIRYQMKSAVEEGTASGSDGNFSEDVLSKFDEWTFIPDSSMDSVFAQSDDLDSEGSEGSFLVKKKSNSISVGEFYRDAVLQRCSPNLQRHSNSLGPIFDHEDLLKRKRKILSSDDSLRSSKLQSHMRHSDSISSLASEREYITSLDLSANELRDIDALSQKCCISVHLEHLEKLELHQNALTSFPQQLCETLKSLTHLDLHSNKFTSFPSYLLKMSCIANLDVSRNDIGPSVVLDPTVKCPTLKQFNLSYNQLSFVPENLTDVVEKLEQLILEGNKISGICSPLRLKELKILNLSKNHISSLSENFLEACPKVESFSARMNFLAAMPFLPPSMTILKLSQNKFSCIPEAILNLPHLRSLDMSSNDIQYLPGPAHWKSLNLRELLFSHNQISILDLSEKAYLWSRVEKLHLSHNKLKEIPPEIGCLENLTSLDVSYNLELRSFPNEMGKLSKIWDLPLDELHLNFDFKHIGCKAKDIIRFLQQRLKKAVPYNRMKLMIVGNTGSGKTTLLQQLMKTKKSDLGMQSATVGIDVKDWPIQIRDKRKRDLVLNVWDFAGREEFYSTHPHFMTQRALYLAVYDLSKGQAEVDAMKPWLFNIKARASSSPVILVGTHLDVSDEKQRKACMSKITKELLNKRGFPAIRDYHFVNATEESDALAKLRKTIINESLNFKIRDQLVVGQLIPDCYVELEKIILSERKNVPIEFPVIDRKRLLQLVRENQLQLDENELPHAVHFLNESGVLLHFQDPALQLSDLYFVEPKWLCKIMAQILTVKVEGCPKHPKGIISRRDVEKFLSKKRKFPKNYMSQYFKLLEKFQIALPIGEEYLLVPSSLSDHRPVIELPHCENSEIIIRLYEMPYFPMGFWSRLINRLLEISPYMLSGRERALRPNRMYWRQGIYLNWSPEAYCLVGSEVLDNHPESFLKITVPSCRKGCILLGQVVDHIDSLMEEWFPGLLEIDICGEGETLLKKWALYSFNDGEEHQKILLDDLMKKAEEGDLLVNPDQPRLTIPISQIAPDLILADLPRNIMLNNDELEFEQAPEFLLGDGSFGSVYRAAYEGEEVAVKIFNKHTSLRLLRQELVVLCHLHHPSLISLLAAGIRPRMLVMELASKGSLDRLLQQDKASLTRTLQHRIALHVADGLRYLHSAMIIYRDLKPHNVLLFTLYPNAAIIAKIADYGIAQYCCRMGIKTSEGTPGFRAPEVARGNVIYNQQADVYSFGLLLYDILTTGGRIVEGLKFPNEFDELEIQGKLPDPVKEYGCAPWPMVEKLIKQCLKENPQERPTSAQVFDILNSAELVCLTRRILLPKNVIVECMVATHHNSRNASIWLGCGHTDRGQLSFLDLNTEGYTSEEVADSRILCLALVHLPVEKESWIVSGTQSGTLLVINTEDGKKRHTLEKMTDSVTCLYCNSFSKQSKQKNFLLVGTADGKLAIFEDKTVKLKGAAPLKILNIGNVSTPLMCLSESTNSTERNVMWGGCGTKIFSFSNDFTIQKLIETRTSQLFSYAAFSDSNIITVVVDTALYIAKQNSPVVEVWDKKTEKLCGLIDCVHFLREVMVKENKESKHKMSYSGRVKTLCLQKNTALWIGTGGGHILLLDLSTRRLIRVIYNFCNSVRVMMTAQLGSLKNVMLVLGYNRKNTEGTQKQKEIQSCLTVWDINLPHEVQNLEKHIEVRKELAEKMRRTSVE", "assay": "Selectivity interaction (ActivX KiNativ screen (kinase selectivity in THP-1 cell lysates)) EUB0000639a LRRK2", "type": "subcellular", "details": "lysate"}, "[4]": {"biological_target": "T1, Serine/threonine-protein kinase Sgk2 (Homo sapiens) (UniProt Q9HBY8)", "T1 sequence (whole entry)": "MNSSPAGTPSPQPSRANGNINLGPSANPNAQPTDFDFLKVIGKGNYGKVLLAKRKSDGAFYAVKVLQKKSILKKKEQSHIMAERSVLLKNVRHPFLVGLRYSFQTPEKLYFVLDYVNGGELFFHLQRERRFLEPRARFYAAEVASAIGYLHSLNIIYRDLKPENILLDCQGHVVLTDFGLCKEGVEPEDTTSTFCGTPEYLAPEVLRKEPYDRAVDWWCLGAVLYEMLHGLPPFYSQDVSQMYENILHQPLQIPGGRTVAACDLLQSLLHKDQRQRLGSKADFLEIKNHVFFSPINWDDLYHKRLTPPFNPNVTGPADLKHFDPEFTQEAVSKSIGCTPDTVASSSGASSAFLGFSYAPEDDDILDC", "assay": "Selectivity interaction (Kinase panel (Invitrogen)) EUB0000639a SGK2", "details": "at 200 nM"}, "[5]": {"biological_target": "Mitogen-activated protein kinase 14 (Homo sapiens, UniProt Q16539)", "assay": "Selectivity interaction (Kinase panel (literature)) EUB0001199aCl MAPK14", "details": "at 1 µM"}, "[6]": {"biological_target": "Ribosomal protein S6 kinase alpha-5 (Homo sapiens) (UniProt O75582)", "assay": "Selectivity interaction (KinomeScan (DiscoverX)) EUB0000695a RPS6KA5", "details": "at 100 nM"}, "[7]": {"biological_target": "Myosin light chain kinase, smooth muscle (Homo sapiens, UniProt Q15746)", "assay": "Selectivity interaction (KinomeScan (DiscoverX)) EUB0000595a MYLK", "details": "at 10 µM"}, "[8]": {"biological_target": "Calcium/calmodulin-dependent protein kinase type 1D (Homo sapiens) (UniProt Q8IU85)", "sequence (Q8IU85 whole entry, looked up)": "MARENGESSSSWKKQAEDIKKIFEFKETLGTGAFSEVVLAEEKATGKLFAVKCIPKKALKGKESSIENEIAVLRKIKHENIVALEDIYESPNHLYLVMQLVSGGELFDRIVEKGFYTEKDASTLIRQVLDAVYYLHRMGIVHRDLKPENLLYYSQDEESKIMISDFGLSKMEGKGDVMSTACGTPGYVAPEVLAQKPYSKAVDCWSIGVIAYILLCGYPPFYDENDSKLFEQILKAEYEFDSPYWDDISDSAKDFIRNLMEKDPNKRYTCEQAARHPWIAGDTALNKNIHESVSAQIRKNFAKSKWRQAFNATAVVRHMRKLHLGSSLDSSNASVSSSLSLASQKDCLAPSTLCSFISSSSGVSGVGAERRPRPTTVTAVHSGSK", "assay": "Selectivity interaction (KinomeScan (DiscoverX)) EUB0000595a CAMK1D", "details": "at 10 µM"}, "[9]": {"biological_target": "T2, NUAK family SNF1-like kinase 2 (Homo sapiens) (UniProt Q9H093)", "T2 sequence (whole entry)": "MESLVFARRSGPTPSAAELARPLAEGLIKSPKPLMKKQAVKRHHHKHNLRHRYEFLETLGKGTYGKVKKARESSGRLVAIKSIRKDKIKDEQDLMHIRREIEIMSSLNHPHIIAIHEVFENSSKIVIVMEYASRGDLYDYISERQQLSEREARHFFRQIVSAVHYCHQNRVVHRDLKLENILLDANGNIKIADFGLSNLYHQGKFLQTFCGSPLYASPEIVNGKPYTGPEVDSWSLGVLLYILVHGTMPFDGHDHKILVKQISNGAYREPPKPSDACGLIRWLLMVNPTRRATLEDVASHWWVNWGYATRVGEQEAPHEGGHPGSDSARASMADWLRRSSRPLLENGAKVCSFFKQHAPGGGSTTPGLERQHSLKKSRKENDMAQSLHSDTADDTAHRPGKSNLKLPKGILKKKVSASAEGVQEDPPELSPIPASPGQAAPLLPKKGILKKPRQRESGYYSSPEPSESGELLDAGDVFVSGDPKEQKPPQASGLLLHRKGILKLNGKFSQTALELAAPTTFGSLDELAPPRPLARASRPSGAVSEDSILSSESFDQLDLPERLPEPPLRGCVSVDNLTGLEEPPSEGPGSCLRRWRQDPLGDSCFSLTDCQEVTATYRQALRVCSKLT", "assay": "Selectivity interaction (KinomeScan (DiscoverX)) EUB0000092b NUAK2", "details": "at 10 µM"}, "[10]": {"biological_target": "Protein-tyrosine kinase 2-beta (Homo sapiens) (UniProt Q14289)", "sequence (Q14289 whole entry, looked up)": "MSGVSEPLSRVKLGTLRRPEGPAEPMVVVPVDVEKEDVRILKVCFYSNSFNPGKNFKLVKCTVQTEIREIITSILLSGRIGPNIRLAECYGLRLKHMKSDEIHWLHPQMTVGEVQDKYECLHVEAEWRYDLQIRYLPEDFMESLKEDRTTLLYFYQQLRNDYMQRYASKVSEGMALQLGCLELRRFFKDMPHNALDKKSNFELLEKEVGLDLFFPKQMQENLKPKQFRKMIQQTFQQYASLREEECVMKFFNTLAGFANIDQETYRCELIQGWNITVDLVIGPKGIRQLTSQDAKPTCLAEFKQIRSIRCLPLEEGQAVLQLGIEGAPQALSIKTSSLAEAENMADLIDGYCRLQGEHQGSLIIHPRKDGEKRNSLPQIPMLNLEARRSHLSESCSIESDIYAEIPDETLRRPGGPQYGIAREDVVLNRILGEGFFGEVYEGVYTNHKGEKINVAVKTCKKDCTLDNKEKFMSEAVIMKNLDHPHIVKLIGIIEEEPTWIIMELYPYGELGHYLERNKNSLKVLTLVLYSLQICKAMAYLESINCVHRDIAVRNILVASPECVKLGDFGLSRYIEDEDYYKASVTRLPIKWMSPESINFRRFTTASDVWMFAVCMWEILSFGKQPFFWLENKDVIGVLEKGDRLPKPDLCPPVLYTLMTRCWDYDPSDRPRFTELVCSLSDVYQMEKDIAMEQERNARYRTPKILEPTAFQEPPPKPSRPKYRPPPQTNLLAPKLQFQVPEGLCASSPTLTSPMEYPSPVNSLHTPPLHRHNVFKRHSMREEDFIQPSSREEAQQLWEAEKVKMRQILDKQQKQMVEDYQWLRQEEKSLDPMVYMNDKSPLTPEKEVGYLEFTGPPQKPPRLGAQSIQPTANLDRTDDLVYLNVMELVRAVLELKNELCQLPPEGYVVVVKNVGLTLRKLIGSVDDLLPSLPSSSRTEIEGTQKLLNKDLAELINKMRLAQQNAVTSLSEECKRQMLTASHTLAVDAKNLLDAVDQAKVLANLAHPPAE", "assay": "Selectivity interaction (KinomeScan (DiscoverX)) EUB0000045b PTK2B"}, "[11]": {"biological_target": "T3, Serine/threonine-protein kinase 3 (Homo sapiens) (UniProt Q13188)", "T3 sequence (whole entry)": "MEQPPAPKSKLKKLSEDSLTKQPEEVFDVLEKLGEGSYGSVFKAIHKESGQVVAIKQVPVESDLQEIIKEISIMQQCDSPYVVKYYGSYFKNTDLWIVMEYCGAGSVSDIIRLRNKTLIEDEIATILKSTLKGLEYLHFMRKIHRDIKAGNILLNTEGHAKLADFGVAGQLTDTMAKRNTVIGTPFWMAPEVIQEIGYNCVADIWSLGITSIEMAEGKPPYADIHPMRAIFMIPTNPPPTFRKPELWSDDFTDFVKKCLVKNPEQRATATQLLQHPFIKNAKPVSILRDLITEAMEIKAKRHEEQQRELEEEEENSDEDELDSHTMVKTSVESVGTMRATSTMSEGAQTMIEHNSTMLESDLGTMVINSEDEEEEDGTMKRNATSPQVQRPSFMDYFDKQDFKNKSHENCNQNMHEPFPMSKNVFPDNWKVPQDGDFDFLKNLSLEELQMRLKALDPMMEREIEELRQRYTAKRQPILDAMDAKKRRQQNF", "assay": "Selectivity interaction (KinomeScan (DiscoverX)) EUB0000045b STK3"}, "[12]": {"biological_target": "Serine/threonine-protein kinase 26 (Homo sapiens, UniProt Q9P289)", "details": "at 1 µM"}, "[13]": {"biological_target": "5'-AMP-activated protein kinase catalytic subunit alpha-2 (Homo sapiens) (UniProt P54646)", "assay": "Selectivity interaction (ActivX KiNativ screen (ex vivo kinase selectivity in human PBMCs)) EUB0001619a PRKAA2", "type": "cell-based", "details": "PBMC, at 1 µM"}, "[14]": {"biological_target": "T4, Serine/threonine-protein kinase 17A (Homo sapiens) (UniProt Q9UEE5)", "T4 sequence (whole entry)": "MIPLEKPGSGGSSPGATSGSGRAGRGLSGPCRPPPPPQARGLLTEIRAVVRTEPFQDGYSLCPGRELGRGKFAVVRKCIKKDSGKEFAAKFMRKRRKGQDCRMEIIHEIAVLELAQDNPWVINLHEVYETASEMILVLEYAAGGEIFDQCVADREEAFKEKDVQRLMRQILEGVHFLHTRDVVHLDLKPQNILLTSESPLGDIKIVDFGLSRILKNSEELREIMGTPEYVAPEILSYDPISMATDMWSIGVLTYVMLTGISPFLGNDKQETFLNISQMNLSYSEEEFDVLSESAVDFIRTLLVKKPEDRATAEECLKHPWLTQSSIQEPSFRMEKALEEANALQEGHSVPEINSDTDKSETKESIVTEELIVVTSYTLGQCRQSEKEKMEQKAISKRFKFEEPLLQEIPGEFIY", "assay": "Selectivity interaction (Kinase panel (DSF assay)) EUB0001559a STK17A"}},
  "data": [
    {"smiles": "CC(=O)Nc1cccc(-n2c(=O)n(C3CC3)c(=O)c3c(Nc4ccc(I)cc4F)n(C)c(=O)c(C)c32)c1", "values": [
      {"measurement": "% of control", "setting": "[1]", "value": 82, "unit": "%"}
    ]},
    {"smiles": "CCc1cc(Nc2nccc(-c3c(-c4ccc(OC)c(C(=O)Nc5c(F)cccc5F)c4)nc4ccccn34)n2)c(OC)cc1N1CCC(N2CCN(S(C)(=O)=O)CC2)CC1", "values": [
      {"measurement": "% of inhibition", "setting": "[2]", "value": 41, "unit": "%"}
    ]},
    {"smiles": "CC[C@@H]1[C@H](F)C(=O)N[C@@H]1COc1nccc2cc(C(N)=O)c(OC)cc12", "note": "[ZIMLOVISERTIB]", "values": [
      {"measurement": "% of inhibition", "setting": "[3]; at 0.01 µM", "value": 18.4, "unit": "%"},
      {"measurement": "% of inhibition", "setting": "[3]; at 0.04 µM", "value": 1.9, "unit": "%"},
      {"measurement": "% of inhibition", "setting": "[3]; at 0.2 µM", "value": 22.9, "unit": "%"},
      {"measurement": "% of inhibition", "setting": "[3]; at 1 µM", "value": 70.9, "unit": "%"},
      {"measurement": "% of inhibition", "setting": "[3]; at 5 µM", "value": 78, "unit": "%"},
      {"measurement": "% of inhibition", "setting": "[4]", "value": 5.25, "unit": "%"}
    ]},
    {"smiles": "CN1Cc2nccc(-c3cn(C)nc3-c3ccc(F)cc3)c2C1=O", "values": [
      {"measurement": "% of inhibition", "setting": "[5]", "value": 37, "unit": "%"}
    ]},
    {"smiles": "Cc1cc(F)c(C(=O)Nc2cccc(-c3nncn3C(C)C)n2)cc1-n1cnc(C2CC2)c1", "values": [
      {"measurement": "% of control", "setting": "[6]", "value": 100, "unit": "%"}
    ]},
    {"smiles": "COCC(=O)NC/C=C/c1ccc2ncnc(Nc3ccc(Oc4ccc(C)nc4)c(C)c3)c2c1", "note": "[CP-724714]", "values": [
      {"measurement": "% of control", "setting": "[7]", "value": 87, "unit": "%"},
      {"measurement": "% of control", "setting": "[8]", "value": 87, "unit": "%"}
    ]},
    {"smiles": "CCC(=O)N1CCN(c2ccc(-n3c(=O)ccc4cnc5ccc(-c6cnc7ccccc7c6)cc5c43)cc2C(F)(F)F)CC1", "values": [
      {"measurement": "% of control", "setting": "[9]", "value": 100, "unit": "%"}
    ]},
    {"smiles": "C=CC(=O)Nc1cc(-n2c(=O)ccc3cnc4ccc(-c5ccc(NS(C)(=O)=O)cc5)cc4c32)ccc1C", "values": [
      {"measurement": "% of control", "setting": "[10]; at 1 µM", "value": 100, "unit": "%"},
      {"measurement": "% of control", "setting": "[10]; at 10 µM", "value": 92, "unit": "%"},
      {"measurement": "% of control", "setting": "[11]; at 1 µM", "value": 62, "unit": "%"},
      {"measurement": "% of control", "setting": "[11]; at 10 µM", "value": 95, "unit": "%"}
    ]},
    {"smiles": "N#Cc1cccc(-c2c[nH]c3ncnc(N4CCOCC4)c23)c1", "values": [
      {"measurement": "% of control", "setting": "[12]", "value": 7, "unit": "%"},
      {"measurement": "% of inhibition", "setting": "[13]", "value": 27, "unit": "%"}
    ]},
    {"smiles": "CN(C(=O)c1cnn2cccnc12)c1cc2c(cc1N1CCOCC1)C(=O)N(C[C@@H](F)C(C)(C)O)C2", "values": [
      {"measurement": "dTM", "setting": "[14]", "value": -0.1, "unit": "K"}
    ]}
  ]
}
